The values below come from US9499550B2 (BRISTOL-MYERS SQUIBB COMPANY, priority 2012, dated 2016).

Assay [1] has as its system HCV genotype 1a (H77 strain) replicon in HUH-7 cells. The assay is described as follows: HCV replicon luciferase reporter assay, genotype 1a. The assay is classed as cell-based. As to conditions: Hepatitis C virus, Huh-7, 72 h, HCV genotype 1a replicon luciferase, 3 days incubation, read-out: LE_1a (EC50, range). An outline of the steps: (§1)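 Replicon inhibition for both genotypes was measured as Renilla luciferase signal (EnduRen, 7.5 μM final, 2 h) after 3-day, 37° C exposure of replicon-bearing HUH-7 cells in 4% FCS DMEM, 0.5% DMSO. The 1b construct carries S1179I; the 1a H77 construct carries P1496L and S2204I. Twenty-point, 3-fold dilutions were fitted four-parametrically for EC50, and CC50 was taken from multiplexed Cell Titer-Blue.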
A general note: A replicon is a self-replicating genome or part of one, used to study replication in cells.

The test system of assay [2] is HCV genotype 1b (Con1) replicon in HUH-7 cells. Description: HCV replicon luciferase reporter assay, genotype 1b. The assay is classed as cell-based. Conditions: Hepatitis C virus, Huh-7, 72 h, HCV genotype 1b replicon luciferase, 3 days incubation, read-out: LE_1b (EC50, range). An outline of the steps: as §1

What is called EC50 is the midpoint of the concentration-response curve. `[2H]C([2H])([2H])C(OC(=O)N[C@@H]1C(=O)N2C[C@H](Oc3nc(-c4ccc(OC(C)C)nc4)cc4cc(OC)ccc34)C[C@H]2C(=O)N[C@]2(C(=O)NS(=O)(=O)C3(C)CC3)C[C@H]2/C=C\CC[C@H](C)C[C@H]1C)(C([2H])([2H])[2H])C(F)(F)F` [Compound 5226, 1,1,1,3,3,3-hexadeutero-2-(trifluoromethyl)propan-2-yl((2R,6S,7R,9S,13aS,14aR,16aS,Z)-2-((3-(6-isopropoxypyridin-3-yl)-6-methoxyisoquinolin-1-yl)oxy)-7,9-dimethyl-14a-(((1-methylcyclopropyl)sulfonyl)carbamoyl)-5,16-dioxo-1,2,3,5,6,7,8,9,10,11,13a,14,14a,15,16,16a-hexadecahydrocyclopropa[e]pyrrolo[1,2-a][1,4]diazacyclopentadecin-6-yl)carbamate]: the EC50 in assay [1] and in assay [2] was 4.82 to 103 nM throughout.
`[2H]C([2H])([2H])C(OC(=O)N[C@@H]1C(=O)N2C[C@H](Oc3nc(-c4ccc(OC(C)C)nc4)cc4cc(OC)ccc34)C[C@H]2C(=O)N[C@]2(C(=O)NS(=O)(=O)C3(C)CC3)C[C@H]2/C=C\CC[C@@H](C)C[C@H]1C)(C([2H])([2H])[2H])C(F)(F)F` [Compound 5227, 1,1,1,3,3,3-hexadeutero-2-(trifluoromethyl)propan-2-yl((2R,6S,7R,9R,13aS,14aR,16aS,Z)-2-((3-(6-isopropoxypyridin-3-yl)-6-methoxyisoquinolin-1-yl)oxy)-7,9-dimethyl-14a-(((1-methylcyclopropyl)sulfonyl)carbamoyl)-5,16-dioxo-1,2,3,5,6,7,8,9,10,11,13a,14,14a,15,16,16a-hexadecahydrocyclopropa[e]pyrrolo[1,2-a][1,4]diazacyclopentadecin-6-yl)carbamate]: the EC50 in assay [1] and in assay [2] was less than 5.46 nM each time.
As for `COc1ccc2c(O[C@@H]3C[C@H]4C(=O)N[C@]5(C(=O)NS(=O)(=O)C6(C)CC6)C[C@H]5/C=C\CC[C@H](C)C[C@@H](C)[C@H](NC(=O)OC5C[C@@H]6C[C@@H]6C5)C(=O)N4C3)nc(-c3ccc(OC(C)C)nc3)cc2c1` (stereo partly drawn) [Compound 5228, (1R,3r,5S)-bicyclo[3.1.0]hexan-3-yl((2R,6S,7R,9S,13aS,14aR,16aS,Z)-2-((3-(6-isopropoxypyridin-3-yl)-6-methoxyisoquinolin-1-yl)oxy)-7,9-dimethyl-14a-(((1-methylcyclopropyl)sulfonyl)carbamoyl)-5,16-dioxo-1,2,3,5,6,7,8,9,10,11,13a,14,14a,15,16,16a-hexadecahydrocyclopropa[e]pyrrolo[1,2-a][1,4]diazacyclopentadecin-6-yl)carbamate], the EC50 in assay [1] was 4.82 to 103 nM; in assay [2], less than 5.46 nM.
In the same order, the values of `COc1ccc2c(O[C@@H]3C[C@H]4C(=O)N[C@]5(C(=O)NS(=O)(=O)C6(C)CC6)C[C@H]5/C=C\CC[C@@H](C)C[C@@H](C)[C@H](NC(=O)OC5C[C@@H]6C[C@@H]6C5)C(=O)N4C3)nc(-c3ccc(OC(C)C)nc3)cc2c1` (stereo partly drawn) [Compound 5229, (1R,3r,5S)-bicyclo[3.1.0]hexan-3-yl((2R,6S,7R,9R,13aS,14aR,16aS,Z)-2-((3-(6-isopropoxypyridin-3-yl)-6-methoxyisoquinolin-1-yl)oxy)-7,9-dimethyl-14a-(((1-methylcyclopropyl)sulfonyl)carbamoyl)-5,16-dioxo-1,2,3,5,6,7,8,9,10,11,13a,14,14a,15,16,16a-hexadecahydrocyclopropa[e]pyrrolo[1,2-a][1,4]diazacyclopentadecin-6-yl)carbamate] are less than 5.46 nM and less than 5.46 nM.
`COc1ccc2c(O[C@@H]3C[C@H]4C(=O)N[C@]5(C(=O)NS(=O)(=O)C6(C)CC6)C[C@H]5/C=C\CC[C@H](C)C[C@@H](C)[C@H](NC(=O)NC(C)(C)C)C(=O)N4C3)nc(-c3ccc(OC(C)C)nc3)cc2c1` [Compound 5230, (2R,6S,7R,9S,13aS,14aR,16aS,Z)-6-(3-(tert-butyl)ureido)-2-((3-(6-isopropoxypyridin-3-yl)-6-methoxyisoquinolin-1-yl)oxy)-7,9-dimethyl-N-((1-methylcyclopropyl)sulfonyl)-5,16-dioxo-1,2,3,5,6,7,8,9,10,11,13a,14,14a,15,16,16a-hexadecahydrocyclopropa[e]pyrrolo[1,2-a][1,4]diazacyclopentadecine-14a-carboxamide]: the EC50 in assay [1] is 4.82 to 103 nM; in assay [2], less than 5.46 nM.
In the same order, the values of `COc1ccc2c(O[C@@H]3C[C@H]4C(=O)N[C@]5(C(=O)NS(=O)(=O)C6(C)CC6)C[C@H]5/C=C\CC[C@@H](C)C[C@@H](C)[C@H](NC(=O)NC(C)(C)C)C(=O)N4C3)nc(-c3ccc(OC(C)C)nc3)cc2c1` [Compound 5231, (2R,6S,7R,9R,13aS,14aR,16aS,Z)-6-(3-(tert-butyl)ureido)-2-((3-(6-isopropoxypyridin-3-yl)-6-methoxyisoquinolin-1-yl)oxy)-7,9-dimethyl-N-((1-methylcyclopropyl)sulfonyl)-5,16-dioxo-1,2,3,5,6,7,8,9,10,11,13a,14,14a,15,16,16a-hexadecahydrocyclopropa[e]pyrrolo[1,2-a][1,4]diazacyclopentadecine-14a-carboxamide] are less than 5.46 nM and less than 5.46 nM.
In the same order, the values of `COc1ccc2c(O[C@@H]3C[C@H]4C(=O)N[C@]5(C(=O)NS(=O)(=O)C6(C)CC6)C[C@H]5/C=C\CC[C@@H](C)C[C@@H](C)[C@H](NC(=O)OC(C)(C)C)C(=O)N4C3)nc(-c3ccc4c(c3)OCCO4)cc2c1` [Compound 5233, tert-butyl ((2R,6S,7R,9R,13aS,14aR,16aS,Z)-2-((3-(2,3-dihydrobenzo[b][1,4]dioxin-6-yl)-6-methoxyisoquinolin-1-yl)oxy)-7,9-dimethyl-14a-(((1-methylcyclopropyl)sulfonyl)carbamoyl)-5,16-dioxo-1,2,3,5,6,7,8,9,10,11,13a,14,14a,15,16,16a-hexadecahydrocyclopropa[e]pyrrolo[1,2-a][1,4]diazacyclopentadecin-6-yl)carbamate] are less than 5.46 nM and less than 5.46 nM.
The like results for `COc1ccc2c(O[C@@H]3C[C@H]4C(=O)N[C@]5(C(=O)NS(=O)(=O)C6(C)CC6)C[C@H]5/C=C\CC[C@@H](C)C[C@@H](C)[C@H](NC(=O)OC(C)(C)C(F)(F)F)C(=O)N4C3)nc(-c3ccc4c(c3)OCCO4)cc2c1` [Compound 5235, 1,1,1-trifluoro-2-methylpropan-2-yl((2R,6S,7R,9R,13aS,14aR,16aS,Z)-2-((3-(2,3-dihydrobenzo[b][1,4]dioxin-6-yl)-6-methoxyisoquinolin-1-yl)oxy)-7,9-dimethyl-14a-(((1-methylcyclopropyl)sulfonyl)carbamoyl)-5,16-dioxo-1,2,3,5,6,7,8,9,10,11,13a,14,14a,15,16,16a-hexadecahydrocyclopropa[e]pyrrolo[1,2-a][1,4]diazacyclopentadecin-6-yl)carbamate] were, in that order, less than 5.46 nM and less than 5.46 nM.
As for `COc1ccc2c(O[C@@H]3C[C@H]4C(=O)N[C@]5(C(=O)NS(=O)(=O)C6(C)CC6)C[C@H]5/C=C\CC[C@H](C)C[C@@H](C)[C@H](NC(=O)OC(C)(C)C(C)(F)F)C(=O)N4C3)nc(-c3ccc4c(c3)OCCO4)cc2c1` [Compound 5236, 3,3-difluoro-2-methylbutan-2-yl((2R,6S,7R,9S,13aS,14aR,16aS,Z)-2-((3-(2,3-dihydrobenzo[b][1,4]dioxin-6-yl)-6-methoxyisoquinolin-1-yl)oxy)-7,9-dimethyl-14a-(((1-methylcyclopropyl)sulfonyl)carbamoyl)-5,16-dioxo-1,2,3,5,6,7,8,9,10,11,13a,14,14a,15,16,16a-hexadecahydrocyclopropa[e]pyrrolo[1,2-a][1,4]diazacyclopentadecin-6-yl)carbamate], the EC50 in assay [1] and in assay [2] was less than 5.46 nM throughout.
As for `COc1ccc2c(O[C@@H]3C[C@H]4C(=O)N[C@]5(C(=O)NS(=O)(=O)C6(C)CC6)C[C@H]5/C=C\CC[C@@H](C)C[C@@H](C)[C@H](NC(=O)OC(C)(C)C(C)(F)F)C(=O)N4C3)nc(-c3ccc4c(c3)OCCO4)cc2c1` [Compound 5237, 3,3-difluoro-2-methylbutan-2-yl((2R,6S,7R,9R,13aS,14aR,16aS,Z)-2-((3-(2,3-dihydrobenzo[b][1,4]dioxin-6-yl)-6-methoxyisoquinolin-1-yl)oxy)-7,9-dimethyl-14a-(((1-methylcyclopropyl)sulfonyl)carbamoyl)-5,16-dioxo-1,2,3,5,6,7,8,9,10,11,13a,14,14a,15,16,16a-hexadecahydrocyclopropa[e]pyrrolo[1,2-a][1,4]diazacyclopentadecin-6-yl)carbamate], the EC50 in assay [1] and in assay [2] was less than 5.46 nM each time.
Regarding `COc1ccc2c(O[C@@H]3C[C@H]4C(=O)N[C@]5(C(=O)NS(=O)(=O)C6CC6)C[C@H]5/C=C\CC[C@@H](C)C[C@@H](C)[C@H](NC(=O)OC(C)(C)C)C(=O)N4C3)nc(-c3ccc4c(c3)OCCO4)cc2c1` [Compound 5239, tert-butyl ((2R,6S,7R,9R,13aS,14aR,16aS,Z)-14a-((cyclopropylsulfonyl)carbamoyl)-2-((3-(2,3-dihydrobenzo[b][1,4]dioxin-6-yl)-6-methoxyisoquinolin-1-yl)oxy)-7,9-dimethyl-5,16-dioxo-1,2,3,5,6,7,8,9,10,11,13a,14,14a,15,16,16a-hexadecahydrocyclopropa[e]pyrrolo[1,2-a][1,4]diazacyclopentadecin-6-yl)carbamate], the EC50 in assay [1] and in assay [2] was less than 5.46 nM each time.
